The target of assay [1] is T1, 5-HT2B (Homo sapiens, UniProt P41595).
T1 construct: gene HTR2B; human recombinant receptor; crude membrane fractions of transfected HEK293 or CHO cells
As to the kind of experiment: radioligand displacement, membranes. It is filed as binding. From the text:
radioligand displacement, membranes on 5-HT2B
On the technique in general: In a radioligand displacement assay an active substance lowers the binding of a labelled ligand.

A further assay concerns the target T2, 5-HT1A (Homo sapiens, UniProt P08908).
T2 construct: gene HTR1A; human recombinant receptor, crude membranes of HEK293 or CHO cells
T2 sequence (P08908 1-422): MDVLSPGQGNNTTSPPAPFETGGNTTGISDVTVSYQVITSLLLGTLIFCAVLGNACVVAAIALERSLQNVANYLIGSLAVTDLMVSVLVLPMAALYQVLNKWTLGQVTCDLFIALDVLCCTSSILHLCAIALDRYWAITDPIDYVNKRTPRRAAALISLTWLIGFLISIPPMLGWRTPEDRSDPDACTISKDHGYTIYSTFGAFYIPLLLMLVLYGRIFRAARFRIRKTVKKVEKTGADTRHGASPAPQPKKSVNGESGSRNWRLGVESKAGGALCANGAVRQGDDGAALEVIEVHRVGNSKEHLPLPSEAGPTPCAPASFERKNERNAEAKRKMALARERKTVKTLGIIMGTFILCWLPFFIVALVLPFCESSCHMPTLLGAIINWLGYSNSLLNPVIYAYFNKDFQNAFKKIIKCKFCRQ
As to the kind of experiment: biochemical. Also noted: species or system HEK293 or CHO; competitive radioligand binding on crude membranes, filtration and scintillation counting. Particulars: for Ki: read-out: Ki (nM), 1A. On the procedure: (§1) Eleven dilutions (5 × assay concentration) of the test and reference compounds (Table S1) were prepared in standard binding buffer (50 mM tris(hydroxymethyl)-aminomethane-HCl (Tris-HCl), 10 mM MgCl2, 1 mM ethylenediaminetetraacetate (EDTA), pH 7.4) by serial dilution: 0.05 nM, 0.5 nM, 1.5 nM, 5 nM, 15 nM, 50 nM, 150 nM, 500 nM, 1.5 μM, 5 μM, and 50 μM. The radioligand (Table S3) was diluted to five times the assay concentration in standard binding buffer. Aliquots ([…]) of the radioligand were dispensed into the wells of a 96-well plate containing […] of standard binding buffer. Triplicate aliquots ([…]) of the test and reference compound dilutions were then added. Finally, crude membrane fractions ([…]) of cells (HEK293 or CHO) expressing human recombinant receptors were dispensed into each well. A total of […] of the reaction mixtures was incubated at room temperature and shielded from light for 1.5 h, and was then harvested by rapid filtration onto Whatman GF/B glass fiber filters presoaked with 0.3% polyethyleneimine, by using a 96-well Brandel harvester (Gaithersburg, MD, USA). Four rapid washes were performed with chilled standard binding buffer (500 mL) to decrease nonspecific binding. Filters were placed in 6 mL scintillation tubes and allowed to dry overnight. The next day, 4-mL of EcoScint scintillation cocktail (National Diagnostics) was added to each tube. The tubes were capped, labeled, and counted by […] scintillation counting. The filter mats were dried, and the scintillant was melted onto the filters, then the radioactivity retained on the filters was counted in a Microbeta scintillation counter. The IC50 values were obtained by using the Prism 4.0 program (GraphPad Software, La Jolla, CA, USA) and were converted into Ki values. Each compound was tested at least in triplicate. With each enantiomer (R)- or (S)-5d and 5e in hand, the optically active pyrimidine derivatives 4d–4e were synthesized following the same reaction sequences (Scheme 3). Finally, compounds 4d and 4e were assessed for their binding affinity to 5-HT2 receptor subtypes by radioligand binding assays. […] A further evaluation of these compounds for other 5-HT receptor subtypes was also performed and is provided in the supplementary data (Table S2). […] Considering the potencies and selectivities of 4, we can conclude that (R,R)-4e would be a viable candidate for a selective 5-HT2C modulator.

The target in another assay is T3, 5-HT1B (Homo sapiens, UniProt P28222).
T3 construct: gene HTR1B; human recombinant receptor, crude membranes of HEK293 or CHO cells
T3 sequence (P28222 whole entry): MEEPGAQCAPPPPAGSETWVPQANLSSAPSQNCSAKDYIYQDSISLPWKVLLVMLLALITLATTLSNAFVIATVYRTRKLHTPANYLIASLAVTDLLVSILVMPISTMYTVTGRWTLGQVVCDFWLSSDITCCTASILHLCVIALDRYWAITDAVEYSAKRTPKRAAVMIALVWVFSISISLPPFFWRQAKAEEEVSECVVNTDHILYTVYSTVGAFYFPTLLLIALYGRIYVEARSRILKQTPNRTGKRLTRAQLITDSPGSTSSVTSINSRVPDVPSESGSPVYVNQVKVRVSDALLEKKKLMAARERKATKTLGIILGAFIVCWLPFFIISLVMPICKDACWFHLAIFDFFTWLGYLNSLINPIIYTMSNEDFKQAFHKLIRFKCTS
As to the kind of experiment: biochemical. Also noted: species or system HEK293 or CHO; competitive radioligand binding on crude membranes, filtration and scintillation counting. The protocol: as §1

The next assay concerns the target T4, 5-HT1D (Homo sapiens, UniProt P28221).
T4 construct: gene HTR1D; human recombinant receptor, crude membranes of HEK293 or CHO cells
Put plainly: biochemical. Also noted: species or system HEK293 or CHO; competitive radioligand binding on crude membranes, filtration and scintillation counting. The protocol: as §1

In assay [2] the target is T1, 5-HT2B. Put plainly: biochemical. Also noted: species or system HEK293 or CHO; competitive radioligand binding on crude membranes, filtration and scintillation counting. On the procedure:
as §1

The next assay concerns the target T5, 5-HT5A (Homo sapiens, UniProt P47898).
T5 construct: gene HTR5A; human recombinant receptor, crude membranes of HEK293 or CHO cells
As to the kind of experiment: biochemical. Also noted: species or system HEK293 or CHO; competitive radioligand binding on crude membranes, filtration and scintillation counting. On the procedure: as §1

A further assay has as its target T6, 5-HT6 (Homo sapiens, UniProt P50406).
T6 construct: gene HTR6; human recombinant receptor, crude membranes of HEK293 or CHO cells
As to the kind of experiment: biochemical. Also noted: species or system HEK293 or CHO; competitive radioligand binding on crude membranes, filtration and scintillation counting. Particulars: for Ki: read-out: Ki (nM), 6. On the procedure: as §1

A further assay has as its target T7, 5-HT1E (Homo sapiens, UniProt P28566).
T7 construct: gene HTR1E; human recombinant receptor, crude membranes of HEK293 or CHO cells
As to the kind of experiment: biochemical. Also noted: species or system HEK293 or CHO; competitive radioligand binding on crude membranes, filtration and scintillation counting. Particulars: for Ki: read-out: Ki (nM), 1E. On the procedure: as §1

The structures appear in SMILES notation. Read-outs that look alike come from different tables or passages of the source.

T4 sequence (P28221 whole entry): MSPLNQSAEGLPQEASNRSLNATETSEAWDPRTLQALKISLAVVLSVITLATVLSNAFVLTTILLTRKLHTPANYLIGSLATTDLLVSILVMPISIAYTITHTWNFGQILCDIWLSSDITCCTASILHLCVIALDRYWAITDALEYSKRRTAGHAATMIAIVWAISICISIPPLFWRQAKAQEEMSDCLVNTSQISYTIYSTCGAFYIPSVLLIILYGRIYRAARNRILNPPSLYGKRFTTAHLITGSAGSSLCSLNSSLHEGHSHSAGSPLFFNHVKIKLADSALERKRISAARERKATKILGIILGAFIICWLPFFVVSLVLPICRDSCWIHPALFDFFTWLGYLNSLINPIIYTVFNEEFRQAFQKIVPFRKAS
T7 sequence (P28566 whole entry): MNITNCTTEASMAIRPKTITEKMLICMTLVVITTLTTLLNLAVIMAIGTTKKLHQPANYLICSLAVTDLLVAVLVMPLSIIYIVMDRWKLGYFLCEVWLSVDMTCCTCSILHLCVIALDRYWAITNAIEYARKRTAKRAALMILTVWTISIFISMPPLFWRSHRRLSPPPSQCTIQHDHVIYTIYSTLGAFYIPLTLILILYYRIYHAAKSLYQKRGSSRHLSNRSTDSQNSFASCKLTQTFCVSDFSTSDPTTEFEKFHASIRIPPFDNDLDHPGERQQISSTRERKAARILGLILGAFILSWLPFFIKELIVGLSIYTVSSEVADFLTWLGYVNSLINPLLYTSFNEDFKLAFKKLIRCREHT
T6 sequence (P50406 whole entry): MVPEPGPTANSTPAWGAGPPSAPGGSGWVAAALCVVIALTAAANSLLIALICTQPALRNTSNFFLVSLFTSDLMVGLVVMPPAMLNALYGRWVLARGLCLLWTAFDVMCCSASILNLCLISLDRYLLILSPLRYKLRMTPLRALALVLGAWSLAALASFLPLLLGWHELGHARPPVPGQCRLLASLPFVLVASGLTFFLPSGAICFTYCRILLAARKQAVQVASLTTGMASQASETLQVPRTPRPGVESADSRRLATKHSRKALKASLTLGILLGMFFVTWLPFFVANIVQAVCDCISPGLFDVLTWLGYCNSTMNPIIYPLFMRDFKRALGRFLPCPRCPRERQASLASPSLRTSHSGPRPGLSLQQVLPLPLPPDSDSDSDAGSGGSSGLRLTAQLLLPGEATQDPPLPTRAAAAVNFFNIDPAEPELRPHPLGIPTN
T1 sequence (P41595 whole entry): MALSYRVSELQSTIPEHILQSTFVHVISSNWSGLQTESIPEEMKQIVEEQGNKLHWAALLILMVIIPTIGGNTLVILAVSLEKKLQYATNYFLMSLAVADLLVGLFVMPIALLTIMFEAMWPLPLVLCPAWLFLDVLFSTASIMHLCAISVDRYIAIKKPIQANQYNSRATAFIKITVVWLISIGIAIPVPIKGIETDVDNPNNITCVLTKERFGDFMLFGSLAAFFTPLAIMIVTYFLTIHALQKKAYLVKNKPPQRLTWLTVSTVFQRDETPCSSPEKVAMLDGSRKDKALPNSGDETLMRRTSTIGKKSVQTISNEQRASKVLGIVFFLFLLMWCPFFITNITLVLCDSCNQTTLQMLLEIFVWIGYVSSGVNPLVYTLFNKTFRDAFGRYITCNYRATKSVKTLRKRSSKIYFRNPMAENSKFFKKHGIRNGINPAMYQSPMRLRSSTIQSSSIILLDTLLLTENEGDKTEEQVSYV
T5 sequence (P47898 whole entry): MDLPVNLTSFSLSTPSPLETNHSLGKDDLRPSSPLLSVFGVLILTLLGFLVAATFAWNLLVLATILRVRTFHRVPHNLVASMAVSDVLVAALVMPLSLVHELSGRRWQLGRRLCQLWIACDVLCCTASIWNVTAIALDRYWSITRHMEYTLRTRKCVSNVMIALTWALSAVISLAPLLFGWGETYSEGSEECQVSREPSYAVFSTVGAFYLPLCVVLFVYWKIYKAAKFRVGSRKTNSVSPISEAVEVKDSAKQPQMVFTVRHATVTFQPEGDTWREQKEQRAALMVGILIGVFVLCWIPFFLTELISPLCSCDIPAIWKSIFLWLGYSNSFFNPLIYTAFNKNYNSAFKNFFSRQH

Consider `C[C@H](Oc1nc(N2CCNC[C@H]2C)ncc1F)c1ccc(F)cc1` [(S,R)-4e, 5-Fluoro-4-((S)-1-(4-fluorophenyl)ethoxy)-2-((R)-2-methylpiperazin-1-yl)pyrimidine], for which the Ki (usually the dissociation constant of the complex between target and ligand, obtained from inhibition or displacement) came to 0.128 µM at 5-HT2B [1], 1120 nM at 5-HT1A and 116 nM on 5-HT6. Also, the inhibition (in general, the drop in the measured response relative to a control, in per cent) at 10 µM is 67.3% on 5-HT1A; 17.9% on 5-HT1B; 40.4% at 5-HT1D; 95.3% on 5-HT2B [2]; 5.2% at 5-HT5A; 86.1% on 5-HT6.
In the case of `C[C@H](Cc1cccc(F)c1)Oc1nc(N2CCNC[C@H]2C)ncc1F` [compound 3, pyrimidine analogue 3], the Ki at 5-HT2B [1] (pH […] MgCl2, room temperature, reference compound, may stem from the authors' earlier study (ref […])) came to 0.0079 µM; at 5-HT1A, 353 nM; on 5-HT1B (read-out: Ki (nM), 1B), 1780 nM; on 5-HT1D (read-out: Ki (nM), 1D) it was 542 nM; at 5-HT1E, 1160 nM; on 5-HT6 it was 43 nM. Besides, the inhibition at 10 µM came to 89% at 5-HT1A; 55.1% at 5-HT1B; 78.3% on 5-HT1D; 65.6% on 5-HT1E; 97.4% on 5-HT2B [2]; 37.4% at 5-HT5A. The inhibition at 10 µM at 5-HT6 is 93.8%.
For `C[C@@H]1CNCCN1c1ncc(F)c(O[C@H](C)c2cccc(F)c2)n1` [(R,R)-4d, 5-Fluoro-4-((R)-1-(3-fluorophenyl)ethoxy)-2-((R)-2-methylpiperazin-1-yl)pyrimidine], the Ki on 5-HT2B [1] amounted to 0.0026 µM; on 5-HT1A it was 98 nM; at 5-HT1E, 1160 nM; on 5-HT6 it was 57 nM. Moreover, the inhibition at 10 µM is 78% on 5-HT1A; 27.7% at 5-HT1B; -6.8% at 5-HT1D; 67.5% on 5-HT1E; 100% at 5-HT2B [2]; 28.1% on 5-HT5A. Besides, the inhibition at 10 µM on 5-HT6 worked out at 95.7%.
`C[C@H](Oc1nc(N2CCNC[C@H]2C)ncc1F)c1cccc(F)c1` [(S,R)-4d, 5-Fluoro-4-((S)-1-(3-fluorophenyl)ethoxy)-2-((R)-2-methylpiperazin-1-yl)pyrimidine]: the values for the Ki at 5-HT2B [1], at 5-HT1A and on 5-HT6 were 0.067 µM, 806 nM and 70 nM, respectively. Moreover, the inhibition at 10 µM at 5-HT1A is 67.7%; on 5-HT1B it was 3%; on 5-HT1D it was 10.3%; on 5-HT1E, 29.5%; on 5-HT5A, 22.8%; at 5-HT6, 91.6%.
In the case of `C[C@@H]1CNCCN1c1ncc(F)c(O[C@H](C)c2ccc(F)cc2)n1` [(R,R)-4e, 5-Fluoro-4-((R)-1-(4-fluorophenyl)ethoxy)-2-((R)-2-methylpiperazin-1-yl)pyrimidine], the Ki is 0.019 µM on 5-HT2B [1] and 17 nM at 5-HT6. Also, the inhibition at 10 µM on 5-HT1A is 10%; at 5-HT1B, 6.4%; on 5-HT1D, -7.7%; on 5-HT1E, 42.7%; at 5-HT2B [2], 99.6%; on 5-HT5A, 26.7%. The inhibition at 10 µM at 5-HT6 is 97.4%.

Values taken from article PMC6151589, “Identification of Optically Active Pyrimidine Derivatives as Selective 5-HT2C Modulators” (Molecules : A Journal of Synthetic Chemistry and Natural …, 2017).
